The target of this assay is T1, Kras and SOS1 (biotin-tagged human Kras loaded with GDP, His-tagged human SOS1) (Homo sapiens, UniProt P01116, G12D).
T1 construct: made in house; host or cells: E. coli (stated for Kras only)
Description: Protein-protein interaction inhibition between Kras and SOS1 (KrasGl2D-SOS PPI) using AlphaScreen. The assay is classed as binding. The settings on record: AlphaScreen; biotin-tagged human Kras loaded with GDP, His-tagged human SOS1; read-out: KRAS G12D-SOS PPI IC50. The method, boiled down:
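Donor beads (nickel) hold His-SOS1; acceptor beads (streptavidin) hold biotin-Kras bound to GDP. Signal measured at 520-620 nm following 680 nm excitation.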
(In general: Bead proximity is the source of the signal in Alpha formats.)

Molecules are shown by their SMILES. Positions of bridges follow the written chain, without caps; N, C: chain ends. Non-standard residues stand in square brackets, D forms with d. Residues, ends and D or L forms follow the SMILES beside them. *: point of attachment. NMeAbu(3,3-F2-piperidino) = CN[C@@H](CCN1CCCC(F)(F)C1)C(=O)O; hPhe(3-Cl-4-CF3) = N[C@@H](CCc1ccc(C(F)(F)F)c(Cl)c1)C(=O)O; hPhe(4-CF3) = N[C@@H](CCc1ccc(C(F)(F)F)cc1)C(=O)O; NMePhe(4-Cl) = CN[C@@H](Cc1ccc(Cl)cc1)C(=O)O; NMePhe(3-Me) = CN[C@@H](Cc1cccc(C)c1)C(=O)O; NMeMet(O2) = CN[C@@H](CCS(C)(=O)=O)C(=O)O; hNle(7,7-F2) = N[C@@H](CCCCC(F)F)C(=O)O; NMeGly(cPent) = CN[C@H](C(=O)O)C1CCCC1; Pip(4-oxo) = O=C1CCN[C@H](C(=O)O)C1; NMeCha = CN[C@@H](CC1CCCCC1)C(=O)O; NMeChg = CN[C@H](C(=O)O)C1CCCCC1; NMeF = CN[C@@H](Cc1ccccc1)C(=O)O; NMeD = CN[C@@H](CC(=O)O)C(=O)O; NMeL = CN[C@@H](CC(C)C)C(=O)O; NMeV = CN[C@H](C(=O)O)C(C)C; d(β3hA) = C[C@@H](N)CC(=O)O; NMeA = CN[C@@H](C)C(=O)O; Piperidide = C1CCN(*)CC1; Pyrrolidide = C1CCN(*)C1; dNMeA = CN[C@H](C)C(=O)O; Ac5c = NC1(C(=O)O)CCCC1; Aze = O=C(O)[C@@H]1CCN1; βAla = NCCC(=O)O; Sar = CNCC(=O)O

T1 sequence (P01116 1-188 isoform P01116-2 G12D): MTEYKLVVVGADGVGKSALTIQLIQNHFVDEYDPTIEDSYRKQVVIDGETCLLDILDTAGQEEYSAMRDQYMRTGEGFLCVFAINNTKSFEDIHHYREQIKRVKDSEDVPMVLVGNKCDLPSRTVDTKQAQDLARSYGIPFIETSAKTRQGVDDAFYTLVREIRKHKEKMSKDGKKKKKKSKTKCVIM

Turning to `CC[C@H](C)[C@@H]1NC(=O)[C@H](CC(C)C)N(C)C(=O)C[C@@H](C(=O)N(C)C)N(C)C(=O)[C@H](C2CCCC2)N(C)C(=O)[C@H](C)NC(=O)[C@H](CCN2CCCC(F)(F)C2)N(C)C(=O)[C@H](CCc2ccc(C(F)(F)F)c(Cl)c2)NC(=O)CN(C)C(=O)[C@H](CC2CCCCC2)N(C)C(=O)[C@@H]2CCN2C(=O)[C@H](C)N(C)C1=O` [Compound 1081] ([NMeL]I[NMeA][Aze][NMeCha][Sar][hPhe(3-Cl-4-CF3)][NMeAbu(3,3-F2-piperidino)]A[NMeGly(cPent)][NMeD]-NMe2; lactam N-11), the half-maximal inhibitory concentration (IC50) came to 25 nM. With `CC[C@H](C)[C@@H]1NC(=O)[C@H](CC(C)C)N(C)C(=O)C[C@@H](C)NC(=O)[C@H](C(C)C)N(C)C(=O)C2(CCCC2)NC(=O)[C@@H]2CCCN2C(=O)[C@H](CCc2ccc(C(F)(F)F)c(Cl)c2)NC(=O)CN(C)C(=O)[C@H](CC2CCCCC2)N(C)C(=O)[C@@H]2CCN2C(=O)[C@@H]2CCCN2C1=O` [Compound 1082] (cyclo([Ac5c][NMeV][d(β3hA)][NMeL]IP[Aze][NMeCha][Sar][hPhe(3-Cl-4-CF3)]P)) the figure was 270 nM; with `CC[C@H](C)[C@@H]1NC(=O)[C@H](C)N(C)C(=O)C[C@@H](C(=O)N2CCCC2)NC(=O)[C@H](CC(C)C)N(C)C(=O)[C@H](Cc2ccccc2)NC(=O)[C@H](CC(C)C)NC(=O)[C@H](CCc2ccc(C(F)(F)F)cc2)NC(=O)CN(C)C(=O)[C@H](Cc2ccc(Cl)cc2)N(C)C(=O)CN(C)C(=O)CN(C)C1=O` [Compound 1085] ([NMeA]I[Sar][Sar][NMePhe(4-Cl)][Sar][hPhe(4-CF3)]LF[NMeL]D-Pyrrolidide; lactam N-11), 50 nM.

Consider `CC[C@H](C)[C@@H]1NC(=O)[C@H](C)N(C)C(=O)CCNC(=O)[C@H](CC(C)C)N(C)C(=O)[C@H](Cc2ccccc2)N(C)C(=O)[C@@H]2CCCN2C(=O)[C@H](CCc2ccc(C(F)(F)F)cc2)NC(=O)CN(C)C(=O)[C@H](Cc2ccc(Cl)cc2)N(C)C(=O)CN(C)C(=O)CN(C)C1=O` [Compound 1086] (cyclo(I[Sar][Sar][NMePhe(4-Cl)][Sar][hPhe(4-CF3)]P[NMeF][NMeL][βAla][NMeA])), for which the IC50 was 180 nM.

As to `CC[C@H](C)[C@@H]1NC(=O)[C@H](C)N(C)C(=O)C[C@@H](C)NC(=O)[C@H](C2CCCC2)N(C)C(=O)C2(CCCC2)NC(=O)[C@@H]2CCCN2C(=O)[C@H](CCc2ccc(C(F)(F)F)c(Cl)c2)NC(=O)[C@@H](C)N(C)C(=O)[C@H](Cc2cccc(C)c2)N(C)C(=O)CN(C)C(=O)CN(C)C1=O` [Compound 1088] (cyclo([Ac5c][NMeGly(cPent)][d(β3hA)][NMeA]I[Sar][Sar][NMePhe(3-Me)][dNMeA][hPhe(3-Cl-4-CF3)]P)), the IC50 was determined as 170 nM.

For the compound `CC[C@H](C)[C@@H]1NC(=O)[C@H](CC(C)C)N(C)C(=O)C[C@@H](C(=O)N2CCCCC2)N(C)C(=O)[C@H](C2CCCCC2)N(C)C(=O)C2(CCCC2)NC(=O)[C@@H]2CC(=O)CCN2C(=O)[C@H](CCc2ccc(C(F)(F)F)c(Cl)c2)NC(=O)CN(C)C(=O)[C@H](CC2CCCCC2)N(C)C(=O)CN(C)C(=O)CN(C)C1=O` [Compound 1089] ([NMeL]I[Sar][Sar][NMeCha][Sar][hPhe(3-Cl-4-CF3)][Pip(4-oxo)][Ac5c][NMeChg][NMeD]-Piperidide; lactam N-11), the IC50 amounted to 1.6 nM. Consider `CC[C@H](C)[C@@H]1NC(=O)[C@H](C)N(C)C(=O)C[C@@H](C)NC(=O)[C@H](CC(C)C)N(C)C(=O)C2(CCCC2)NC(=O)[C@@H]2CCCN2C(=O)[C@H](CCc2ccc(C(F)(F)F)cc2)NC(=O)CN(C)C(=O)[C@H](CC2CCCCC2)N(C)C(=O)CN(C)C(=O)CN(C)C1=O` [Compound 1090] (cyclo([Ac5c][NMeL][d(β3hA)][NMeA]I[Sar][Sar][NMeCha][Sar][hPhe(4-CF3)]P)), for which the concentration for half-maximal inhibition (IC50) was 88 nM.

On to `CC[C@H](C)[C@@H]1NC(=O)[C@H](C)N(C)C(=O)C[C@@H](C(=O)N2CCCC2)NC(=O)[C@H](CC(C)C)N(C)C(=O)[C@H](Cc2ccccc2)N(C)C(=O)[C@H](CCCCC(F)F)NC(=O)[C@H](CCc2ccc(C(F)(F)F)cc2)NC(=O)CN(C)C(=O)[C@H](Cc2ccc(Cl)cc2)N(C)C(=O)CN(C)C(=O)CN(C)C1=O` [Compound 1092] ([NMeA]I[Sar][Sar][NMePhe(4-Cl)][Sar][hPhe(4-CF3)][hNle(7,7-F2)][NMeF][NMeL]D-Pyrrolidide; lactam N-11), for which the IC50 was found to be 41 nM. With `CC[C@H](C)[C@@H]1NC(=O)[C@H](CC(C)C)N(C)C(=O)C[C@@H](C(=O)N2CCCCC2)N(C)C(=O)[C@H](C2CCCCC2)N(C)C(=O)C2(CCCC2)NC(=O)[C@@H]2CCCN2C(=O)[C@H](CCc2ccc(C(F)(F)F)c(Cl)c2)NC(=O)CN(C)C(=O)[C@H](CCS(C)(=O)=O)N(C)C(=O)CN(C)C(=O)CN(C)C1=O` [Compound 1094] ([NMeL]I[Sar][Sar][NMeMet(O2)][Sar][hPhe(3-Cl-4-CF3)]P[Ac5c][NMeChg][NMeD]-Piperidide; lactam N-11) the figure was 2.2 nM.

For orientation: IC50 means the concentration needed to halve the response being measured.
